Reference: patent US4172130A, “α-AMINOACYL CONTAINING NEW PEPTIDES WITH GASTRIN EFFECTS AND A PROCESS FOR THE PREPARATION THEREOF” (Richter Gedeon Vegyeszeti Gyar RT, priority 1976, dated 1979)
Peptide text beside a SMILES is read from it. * marks the point of attachment. X2 = CC(C)(C)OC(=O)NOCC(=O)*

Tests used:
gastric acid secretion [1] = experiment: Gastric acid secretion increasing effect, methods of Ghosh and Schild and Lai, modified by Pissidis and Clark; assay type: in vivo; conditions: for Activity, % (gastric acid secretion increasing effect): in comparison with 0.2 μ/100 g i.v. dosage of pentagastrin = 100%
Protocol: The biological activities of the new compounds according to the invention were tested by the methods of Ghosh and Schild (Br. J. Pharmac. Chemoth. 13, 54 (1958) and Lai (Gut. 5, 327 (1964), modified by Pissidis and Clark (Gut. 8, 196 (1967)). The pharmacological tests have shown that the gastric acid secretion provoked by the new compounds is occasionally higher by 20 to 80% than that provoked by the same dosage of pentagastrin. It is particularly remarkable that the new compounds, in contrast with pentagastrin, are resorbed also from the small intenstine, and, when administered to the small intenstine in a dosage of 20 μg/100 g body weight, exert effects similar to that exerted by a 0.2 μg/100 g i.v. dosage of pentagastrin. […] It is also remarkable that some of the new compounds increase the gastric acid secretion after resorption from the rectum.

gastric acid secretion [2] = conditions: in vivo; cited from earlier work

Compound	Activity, % (gastric acid secretion increasing effect) (gastric acid secretion [1]; 0.2 μg i.v.) [%]	Activity, % (gastric acid secretion increasing effect) (gastric acid secretion [1]; 20 μg rectal) [%]	other results
CSCC[C@H](NC(=O)[C@H](Cc1c[nH]c2ccccc12)NC(=O)CONC(=O)OC(C)(C)C)C(=O)N[C@@H](CC(=O)O)C(=O)N[C@@H](Cc1ccccc1)C(=O)NOCC(=O)O [BOC-O-Gly Met OGly-OH, 2-(2-(tert.-Butoxycarbonyl-aminooxy)-acetyl-L-tryptophyl-L-methionyl-L-aspartyl-L-phenylalanyl-aminooxy)-acetic acid]	25	22	
CC(C)C[C@H](NC(=O)[C@H](Cc1c[nH]c2ccccc12)NC(=O)CONC(=O)OC(C)(C)C)C(=O)N[C@@H](CC(=O)O)C(=O)N[C@@H](Cc1ccccc1)C(N)=O [BOC-OGly Leu H, 2-(tert.-Butoxycarbonyl-aminooxy)-acetyl-L-tryptophyl-L-leucyl-L-aspartyl-L-phenylalanine-amide] (X2-WLDF-NH2)	124	68	Activity, % (gastric acid secretion increasing effect) (gastric acid secretion [1]; 2.0 μg i.v.): 272%; Activity, % (gastric acid secretion increasing effect) (gastric acid secretion [1]; 20 μg intestinal): 6%
CSCC[C@H](NC(=O)[C@H](Cc1c[nH]c2ccccc12)NC(=O)CCONC(=O)OC(C)(C)C)C(=O)N[C@@H](CC(=O)O)C(=O)N[C@@H](Cc1ccccc1)C(=O)NOCC(=O)O [BOC-β-OAla Met OGly-OH, 2-(3-(tert.-Butoxycarbonyl-aminooxy)-propionyl-L-tryptophyl-L-methionyl-L-aspartyl-L-phenylalanyl-aminooxy)-acetic acid]	32		
CSCC[C@H](NC(=O)[C@H](Cc1c[nH]c2ccccc12)NC(=O)CCNC(=O)OC(C)(C)C)C(=O)N[C@@H](CC(=O)O)C(=O)N[C@@H](Cc1ccccc1)C(N)=O [pentagastrin, BOC--β--Ala-- Trp--Met--Asp--Phe--NH2, reference compound]	100		gastric acid secretion when administered enterally (gastric acid secretion [1]; enteral, even in higher dosages): does not increase the gastric acid secretion; activity among known analogs and derivatives of the tetrapeptide-amide / compared with pentagastrin (gastric acid secretion [2]): the most active derivative
H--Trp--Met--Asp--Phe--NH2: carboxy-terminal tetrapeptide-amide, the biologically active center of gastrin			gastric acid secretion stimulating effect compared with the total hormone (gastrin) (gastric acid secretion [2]): lower by about one order of magnitude
